25 compounds from US20240309003A1, “HETEROCYCLIC COMPOUNDS AS TRIGGERING RECEPTOR EXPRESSED ON MYELOID CELLS 2 AGONISTS AND METHODS OF USE” (Vigil Neuroscience, Inc., priority 2021, published 2024) can be followed below.

The first assay deals with T1, human TREM2 (Homo sapiens, UniProt Q9NZC2).
T1 construct: expressed in transfected cells; host or cells: HEK293T
T1 sequence (Q9NZC2 19-230): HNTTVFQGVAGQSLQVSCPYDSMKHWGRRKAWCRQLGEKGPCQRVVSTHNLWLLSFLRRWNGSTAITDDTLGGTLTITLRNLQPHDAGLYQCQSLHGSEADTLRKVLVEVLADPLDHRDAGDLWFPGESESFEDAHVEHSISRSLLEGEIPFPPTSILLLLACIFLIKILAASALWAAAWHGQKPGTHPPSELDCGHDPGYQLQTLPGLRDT
T1 sequence (O43914 22-113 partner): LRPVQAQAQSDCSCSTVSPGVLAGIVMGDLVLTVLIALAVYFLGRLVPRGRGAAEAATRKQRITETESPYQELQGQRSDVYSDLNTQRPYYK
The assay can be described thus: TREM2 agonist potency by cellular phosphorylation of Syk (AlphaLisa) in HEK293T-hTREM2 cells. Particulars: HEK293 cells expressing human TREM2 and DAP12, Table D. The class given is cell-based. The procedure: In Vitro Measurement of Triggering Receptor Expressed on Myeloid Cells 2 Activity Using Cellular Phosphorylation of Spleen Tyrosine Kinase (“Syk”) Assays
Measurement of TREM2 agonist potency was done using a HEK cell line expressing human TREM2 and DAP12 (HEK293T-hTREM2 cells). Binding of small molecules to, and activation of, TREM2 increases the phosphorylation of Syk. The resultant levels of Syk phosphorylation are measured using a commercial AlphaLisa reagent kit. To perform the assay, HEK-hTREM2 cells were plated at 14,000 cells per well in a 384 well plate, in 25 μL of complete growth media and incubated at 37° C., 5% CO2 for 20-24 hours.
Prior to the assay, test compounds were diluted in the 384 well plates in assay buffer and allowed to equilibrate for 30 minutes. Growth media was removed from cell plates by inversion on blotting paper, and 25 μL of test articles in assay buffer was added to cells. Cells were incubated for 45 minutes at room temperature. After 45 minutes, assay buffer was removed and 10 μL of lysis buffer was added. Plates were shaken for 20 minutes at 350 RPM at room temperature. After complete lysis, AlphaLisa reagents were added to the lysate, and fluourescence intensity was measured using a Perkin Elmer Envision plate reader. Intensities were used to generate a standard curve, and % activation was calculated. Curve fitting was performed using Prism v9 software, log(agonist) vs response-variable slope (four parameters), and EC50s were calculated from the curve fit.
This assay may be used to test any of the compounds described herein to assess and characterize a compound's ability to act as an agonist of TREM2.
In general terms: In Alpha technology, singlet oxygen from a donor bead excites a nearby acceptor bead.
For `Cc1cnc2c(C34CC(C(F)(F)F)(C3)C4)nc([C@H]3C[C@@H](C)O[C@@H](c4cnn(C5CC5)c4)C3)nc2n1` [Example 140, 2-((2R,4S,6R)-2-(1-cyclopropyl-1H-pyrazol-4-yl)-6-methyltetrahydro-2H-pyran-4-yl)-7-methyl-4-(3-(trifluoromethyl)bicyclo[1.1.1]pentan-1-yl)pteridine], the EC50 (in general, the concentration needed to bring the measured effect to its halfway point) lay within 500 to 3000 nM.

`COc1ccc([C@H]2C[C@@H](c3nc(C45CC(C(F)(F)F)(C4)C5)c4nc(C)c(C)nc4n3)CCO2)cn1` [Example 141, 2-((2R,4S)-2-(6-methoxypyridin-3-yl)tetrahydro-2H-pyran-4-yl)-6,7-dimethyl-4-(3-(trifluoromethyl)bicyclo[1.1.1]pentan-1-yl)pteridine]: the EC50 is less than 50 nM. As to `COc1ncccc1[C@H]1C[C@@H](c2nc(-c3ccc(F)cc3F)c3nc(C)c(C)nc3n2)CCO1` [Example 161, 4-(2,4-difluorophenyl)-2-((2R,4S)-2-(2-methoxypyridin-3-yl)tetrahydro-2H-pyran-4-yl)-6,7-dimethylpteridine], the half-maximal effective concentration (EC50) fell in the range of 50 to 500 nM.

Regarding `[2H]C1([2H])C[C@H](c2nc(-c3ccc(F)cc3F)c3nc(C)c(C)nc3n2)C[C@]([2H])(c2cnn(C3CC3)c2)O1` [Example 190, 2-((2R,4S)-2-(1-cyclopropyl-1H-pyrazol-4-yl)tetrahydro-2H-pyran-4-yl-2,6,6-d3)-4-(2,4-difluorophenyl)-6,7-dimethylpteridine], the half-maximal effective concentration (EC50) was less than 50 nM. The compound `Cc1nc2nc([C@H]3CCO[C@@H](c4cnn(C5CC5)c4)C3)nc(C34CC(C(C)C)(C3)C4)c2nc1C` [Example 127, 2-((2R,4S)-2-(1-cyclopropyl-1H-pyrazol-4-yl)tetrahydro-2H-pyran-4-yl)-4-(3-isopropylbicyclo[1.1.1]pentan-1-yl)-6,7-dimethylpteridine] displayed an EC50 of less than 50 nM. Turning to `Cc1nc2cc([C@H]3CCO[C@@H](c4cnn(C5CC5)c4)C3)nc(-c3ccc(F)cc3F)c2nc1C` [Example 210, 7-((2R,4S)-2-(1-cyclopropyl-1H-pyrazol-4-yl)tetrahydro-2H-pyran-4-yl)-5-(2,4-difluorophenyl)-2,3-dimethylpyrido[3,4-b]pyrazine], the half-maximal effective concentration (EC50) was less than 50 nM. For the compound `COc1ccc(-c2nc([C@H]3CCO[C@@H](c4cnn(C5CC5)c4)C3)nc3nc(C)c(C)nc23)cn1` [Example 239, 2-((2R,4S)-2-(1-cyclopropyl-1H-pyrazol-4-yl)tetrahydro-2H-pyran-4-yl)-4-(6-methoxypyridin-3-yl)-6,7-dimethylpteridine], the EC50 is 50 to 500 nM.

Take `Cc1ccc(-c2nc(N3C[C@@H](C)O[C@@H](c4cnn(C5CC5)c4)C3)nc3nc(C)c(C)nc23)o1` [Example 243, (2S,6R)-2-(1-cyclopropyl-1H-pyrazol-4-yl)-4-(6,7-dimethyl-4-(5-methylfuran-2-yl)pteridin-2-yl)-6-methylmorpholine]: the concentration giving a half-maximal response (EC50) is 50 to 500 nM.

Take `Cc1nc2cc([C@H]3CCO[C@@H](c4cnn(C5CC5)c4)C3)nc(-c3ccc(C(F)(F)F)cc3F)c2nc1C` [Example 211, 7-((2R,4S)-2-(1-cyclopropyl-1H-pyrazol-4-yl)tetrahydro-2H-pyran-4-yl)-5-(2-fluoro-4-(trifluoromethyl)phenyl)-2,3-dimethylpyrido[3,4-b]pyrazine]: the EC50 is less than 50 nM. As to `Cc1ccc2c(C34CC(C(F)(F)F)(C3)C4)nc([C@H]3C[C@@H](C)O[C@@H](c4cnn(C5CC5)c4)C3)nc2n1` [Example 220, 2-((2R,4S,6R)-2-(1-cyclopropyl-1H-pyrazol-4-yl)-6-methyltetrahydro-2H-pyran-4-yl)-7-methyl-4-(3-(trifluoromethyl)bicyclo[1.1.1]pentan-1-yl)pyrido[2,3-d]pyrimidine], the EC50 lay in the range of 500 to 3000 nM. For the compound `Cc1cnc2c(-c3ccc(Cl)cc3F)nc(N3C[C@@H](C)O[C@@H](c4cnn(C5CC5)c4)C3)nc2n1` (racemic) [Example 70, 4-(4-(4-chloro-2-fluorophenyl)-7-methylpteridin-2-yl)-2-(1-cyclopropyl-1H-pyrazol-4-yl)-6-methylmorpholine], the EC50 is less than 50 nM. In turn, `Cc1nc2cc([C@@H]3CCO[C@H](c4cnn(C5CC5)c4)C3)cc(-c3ccc(Cl)cc3F)c2nc1C` [Example 227, 5-(4-chloro-2-fluorophenyl)-7-((2S,4R)-2-(1-cyclopropyl-1H-pyrazol-4-yl)tetrahydro-2H-pyran-4-yl)-2,3-dimethylquinoxaline] had a 50% effective concentration (EC50) of 500 to 3000 nM. Compound `Cc1nc2nc([C@H]3C[C@@H](C)O[C@@H](c4cnn(C5CC5)c4)C3)nc(-c3cc(F)c(F)cc3F)c2nc1C` [Example 157, 2-((2R,4S,6R)-2-(1-cyclopropyl-1H-pyrazol-4-yl)-6-methyltetrahydro-2H-pyran-4-yl)-6,7-dimethyl-4-(2,4,5-trifluorophenyl)pteridine] came in with an EC50 of less than 50 nM. In the case of `[2H][C@]1(c2cnn(C3CC3)c2)C[C@@H](c2nc(-c3ccc(F)cc3F)c3nc(C)c(C)nc3n2)CCO1` [Example 182, 2-((2R,4S)-2-(1-cyclopropyl-1H-pyrazol-4-yl)tetrahydro-2H-pyran-4-yl-2-d)-4-(2,4-difluorophenyl)-6,7-dimethylpteridine], the EC50 was less than 50 nM. The compound `[2H]C([2H])([2H])c1ccc(-c2nc([C@H]3CCO[C@@H](c4cnn(C([2H])([2H])[2H])c4)C3)nc3nc(C([2H])([2H])[2H])c(C([2H])([2H])[2H])nc23)cc1` [Example 175, 6,7-bis(methyl-d3)-2-((2R,4S)-2-(1-(methyl-d3)-1H-pyrazol-4-yl)tetrahydro-2H-pyran-4-yl)-4-(4-(methyl-d3)phenyl)pteridine] yielded an EC50 of 50 to 500 nM. For the compound `Cc1nc2nc(N3CCO[C@H](c4cc[nH]c(=O)c4)C3)nc(-c3ccc(C(F)(F)F)nc3)c2nc1C` [Example 196, (R)-4-(4-(6,7-dimethyl-4-(6-(trifluoromethyl)pyridin-3-yl)pteridin-2-yl)morpholin-2-yl)pyridin-2(1H)-one], the 50% effective concentration (EC50) was in the range of 50 to 500 nM.

The same assay, now with this note: HEK293 cells expressing human TREM2 and DAP12, Table D-2.
Turning to `[2H]C([2H])([2H])c1nc2nc(N3C[C@@H](C)O[C@@H](c4cnn(C5CC5)c4)C3)nc(-c3ccc(F)cc3F)c2nc1C([2H])([2H])[2H]` [Example I-1129, (2S,6R)-2-(1-cyclopropylpyrazol-4-yl)-4-[4-(2,4-difluorophenyl)-6,7-bis(trideuteriomethyl)pteridin-2-yl]-6-methyl-morpholine], the EC50 was less than 50 nM. `Cc1nc2nc(C3CCO[C@@H](c4cnn(C5CC5)c4)C3)nc(-c3cc(C(F)(F)F)c(F)cc3F)c2nc1C` (stereo partly drawn) [Example I-1585, 2-((2R)-2-(1-cyclopropyl-1H-pyrazol-4-yl)tetrahydro-2H-pyran-4-yl)-4-(2,4-difluoro-5-(trifluoromethyl)phenyl)-6,7-dimethylpteridinee] registered a concentration giving a half-maximal response (EC50) of less than 50 nM. Compound `Cc1nc2nc(N3C[C@@H](C)O[C@@H](c4cnn(C)c4)C3)nc(-c3ccc(F)cc3F)c2nc1C` [Example I-1633] had an EC50 of less than 50 nM. In turn, `Cc1nc2nc([C@H]3CCO[C@@H](c4cnn(C5CC5)c4)C3)nc(-c3ccc4c(c3)CCC4)c2nc1C` (stereo in doubt) [Example I-1170, 4-indan-5-yl-6,7-dimethyl-2-[(2R,4S)-2-(1-cyclopropylpyrazol-4-yl)tetrahydropyran-4-yl]pteridine] had an EC50 of less than 50 nM. The compound `Cc1nc2nc([C@H]3CCO[C@@H](c4cnn(C5CC5)c4)C3)nc(-c3c(F)cc(C(F)(F)F)cc3F)c2nc1C` (stereo in doubt) [Example I-1391, 4-[2,6-difluoro-4-(trifluoromethyl)phenyl]-6,7-dimethyl-2-[(2R,4S)-2-(1-cyclopropylpyrazol-4-yl)tetrahydropyran-4-yl]pteridine] returned an EC50 of less than 50 nM. As to `Cc1nc2nc([C@H]3CCO[C@@H](c4cnn(C5CC5)c4)C3)nc(-c3ccc(C(F)(F)F)cc3F)c2nc1C(F)F` [Example I-1593, 2-[(2R,4S)-2-(1-cyclopropylpyrazol-4-yl)tetrahydropyran-4-yl]-6-(difluoromethyl)-4-[2-fluoro-4-(trifluoromethyl)phenyl]-7-methyl-pteridine], the EC50 is less than 50 nM. In turn, `Cc1nc2nc(-c3ccc(Cl)cc3F)cc(N3C[C@@H](C)O[C@@H](c4cnn(C5CC5)c4)C3)c2nc1C` [Example I-1081, (2S,6R)-4-[6-(4-chloro-2-fluoro-phenyl)-2,3-dimethyl-pyrido[2,3-b]pyrazin-8-yl]-2-(1-cyclopropylpyrazol-4-yl)-6-methyl-morpholine] returned an EC50 of 500 to 3000 nM. The compound `Cc1nc2nc(N3C[C@@H](C4CC4)O[C@@H](c4cnn(C)c4)C3)nc(-c3ccc(F)cc3F)c2nc1C` [Example I-1673, (2R,6S)-2-cyclopropyl-4-[4-(2,4-difluorophenyl)-6,7-dimethyl-pteridin-2-yl]-6-(1-methylpyrazol-4-yl)morpholine] yielded a half-maximal effective concentration (EC50) of less than 50 nM. On the same count and under the same terms, in the case of `Cc1nc2nc(N3C[C@@H](c4cnn(C5CC5)c4)O[C@@H](C(F)F)C3)nc(-c3ccc(F)cc3F)c2nc1C` (single isomer, unassigned) [Example I-1524] it was less than 50 nM.
